Results reported in publication PMC7248880, “Preclinical Incorporation Dosimetry of [^18F]FACH—A Novel ^18F-Labeled MCT1/MCT4 Lactate Transporter Inhibitor for Imaging Cancer Metabolism with PET” (Molecules, 2020).

Assay: Preclinical incorporation dosimetry: whole-body PET/CT in piglets, scaled to human, OLINDA 2.1, ICRP103
Assay type: in vivo, juvenile pigs
Procedure: Three piglets (age: ~6 weeks, weight: ~13–15 kg) were fasted on the day of imaging and received an intranuscular. injection of 1 mL azaperone and 4 mL ketamine to introduce anesthesia. […] During narcosis, the animals maintained spontaneous respiration and no mandatory ventilation was applied. The subjects were sequentially imaged after an iv injection (contralateral ear vein) of 156 ± 54 MBq [^18F]FACH (0.63 ± 0.49 µg) in a PET/CT system (Biograph16, SIEMENS, Erlangen, Germany). The piglets were positioned prone with legs alongside the body on a custom-made plastic trough including a piglet head-holder (Figure 5). The PET acquisition was divided into a sequential (4 × 9 min, 3 × 12 min) and a static part (1 × 24 min, 1 × 30 min, 1 × 36 min), each of which was preceded by a low-dose CT to acquire structural data for attenuation correction (AC) and anatomical orientation (Figure 6). Post mortem, the urine was collected by bladder punctuation, weighted, and divided into three 1 mL samples for activity measurements in a gamma-counter (Packard Cobra II 5003 Auto Gamma Counting System, GMI, Ramsey, MN, USA).
PET data reconstruction was done using low-dose CT attenuation correction (AC) and an iterative OSEM algorithm with 4 iterations and 8 subsets. As the PET/CT system is in daily clinical use, it is periodically subjected to detector normalization and activity calibration. Furthermore, all peripheral activity-measuring devices to be used for the investigation (dose calibrator, gamma counter) are cross-calibrated in terms of timing and a radioactivity adjustment.
The image data were analyzed with ROVER (ABX, Radeberg, Germany; v. 3.0.46h). The organs were identified and manually delineated using 3D volumes of interest (VOI). The CT data were used for anatomical orientation and for image registration with the PET data. Relevant source organs like brain, gall bladder, large intestine, small intestine, stomach, heart, kidneys, liver, lungs, pancreas, red marrow (backbone, pelvis, sternum), spleen, thyroid, testes, skeleton (bone), and the urinary bladder were delineated and the time–activity data transformed into percentage of injected dose (%IDorgan) with Equation (2). (2) %IDorgant=Aorgant×cscant/A0t [%] where Aorgant is the activity in the organ at the time t; cscant is a calibration factor representing the theoretical body activity (derived from a whole body mask of a volume that equals the body dimentions of the animal) decay corrected to t and divided by the imaged body activity in each image frame at the time t, and A0t is the injected activity decay corrected to t0.
The dose calculation has been described by our group in detail before. Briefly, due to differences in weight, size, and metabolic rates between the animal species and the human volunteers, it is necessary to map the preclinical extracted biodistribution data to human circumstances. Thus, the animal biokinetic data (time scale and %ID values) were adapted to the human circumstances according to [22] to fit the human weight, size, and metabolic rates (Equations (3) and (4)). (3) thuman=tanimal[mhuman/manimal]^0.25 (4) [%ID]/organhuman=[%ID]/ganimal×mTBanimal[g]/mTBhuman[g]×morganhuman[g]
The TIACs were estimated by exponential fitting and the dosimetry estimation was performed using OLINDA/EXM software (v. 2.1). Finally, organ doses (OD) were estimated and multiplied by tissue weighting factors as published in ICRP103 [20].

CCCN(CCC[18F])c1ccc(/C=C(\C#N)C(=O)O)c(OC)c1 [[^18F]FACH, (E)-2-cyano-3-{4-[(3-[^18F]fluoropropyl)(propyl)amino]-2-methoxyphenyl}acrylic acid]
Effective dose (FACHpig1): 1.25E-02 mSv/MBq | Effective dose contribution HT wT, Adrenals (FACHpig1): 1.26E-04 mSv/MBq | Effective dose contribution HT wT, Brain (FACHpig1): 5.61E-05 mSv/MBq | Effective dose contribution HT wT, Esophagus (FACHpig1): 4.16E-04 mSv/MBq | Effective dose contribution HT wT, Eyes (FACHpig1): 0.00E+00 mSv/MBq | Effective dose contribution HT wT, Gallbladder Wall (FACHpig1): 1.12E-04 mSv/MBq | Effective dose contribution HT wT, Heart Wall (FACHpig1): 9.47E-05 mSv/MBq | Effective dose contribution HT wT, Kidneys (FACHpig1): 2.47E-04 mSv/MBq | Effective dose contribution HT wT, Left colon (FACHpig1): 7.77E-04 mSv/MBq | Effective dose contribution HT wT, Liver (FACHpig1): 3.22E-04 mSv/MBq | Effective dose contribution HT wT, Lungs (FACHpig1): 9.67E-04 mSv/MBq | Effective dose contribution HT wT, Osteogenic Cells (FACHpig1): 2.00E-04 mSv/MBq | Effective dose contribution HT wT, Pancreas (FACHpig1): 5.61E-04 mSv/MBq | Effective dose contribution HT wT, Prostate (FACHpig1): 7.36E-05 mSv/MBq | Effective dose contribution HT wT, Rectum (FACHpig1): 3.44E-04 mSv/MBq | Effective dose contribution HT wT, Red Marrow (FACHpig1): 1.58E-03 mSv/MBq | Effective dose contribution HT wT, Right colon (FACHpig1): 9.34E-04 mSv/MBq | Effective dose contribution HT wT, Salivary Glands (FACHpig1): 1.03E-04 mSv/MBq | Effective dose contribution HT wT, Small Intestine (FACHpig1): 1.74E-04 mSv/MBq | Effective dose contribution HT wT, Spleen (FACHpig1): 9.48E-05 mSv/MBq | Effective dose contribution HT wT, Stomach Wall (FACHpig1): 1.71E-03 mSv/MBq | Effective dose contribution HT wT, Testes (FACHpig1): 4.40E-04 mSv/MBq | Effective dose contribution HT wT, Thymus (FACHpig1): 9.49E-05 mSv/MBq | Effective dose contribution HT wT, Thyroid (FACHpig1): 3.21E-04 mSv/MBq | Effective dose contribution HT wT, Total Body (FACHpig1): 0.00E+00 mSv/MBq | Effective dose contribution HT wT, Urinary Bladder Wall (FACHpig1): 2.74E-03 mSv/MBq | Organ equivalent dose HT, Adrenals (FACHpig1): 1.36E-02 mSv/MBq | Organ equivalent dose HT, Brain (FACHpig1): 5.61E-03 mSv/MBq | Organ equivalent dose HT, Esophagus (FACHpig1): 1.04E-02 mSv/MBq | Organ equivalent dose HT, Eyes (FACHpig1): 8.81E-03 mSv/MBq | Organ equivalent dose HT, Gallbladder Wall (FACHpig1): 1.22E-02 mSv/MBq | Organ equivalent dose HT, Heart Wall (FACHpig1): 1.03E-02 mSv/MBq | Organ equivalent dose HT, Kidneys (FACHpig1): 2.67E-02 mSv/MBq | Organ equivalent dose HT, Left colon (FACHpig1): 1.60E-02 mSv/MBq | Organ equivalent dose HT, Liver (FACHpig1): 8.05E-03 mSv/MBq | Organ equivalent dose HT, Lungs (FACHpig1): 8.05E-03 mSv/MBq | Organ equivalent dose HT, Osteogenic Cells (FACHpig1): 2.00E-02 mSv/MBq | Organ equivalent dose HT, Pancreas (FACHpig1): 6.08E-02 mSv/MBq | Organ equivalent dose HT, Prostate (FACHpig1): 1.59E-02 mSv/MBq | Organ equivalent dose HT, Rectum (FACHpig1): 1.50E-02 mSv/MBq | Organ equivalent dose HT, Red Marrow (FACHpig1): 1.32E-02 mSv/MBq | Organ equivalent dose HT, Right colon (FACHpig1): 1.93E-02 mSv/MBq | Organ equivalent dose HT, Salivary Glands (FACHpig1): 1.03E-02 mSv/MBq | Organ equivalent dose HT, Small Intestine (FACHpig1): 1.88E-02 mSv/MBq | Organ equivalent dose HT, Spleen (FACHpig1): 1.03E-02 mSv/MBq | Organ equivalent dose HT, Stomach Wall (FACHpig1): 1.43E-02 mSv/MBq | Organ equivalent dose HT, Testes (FACHpig1): 1.10E-02 mSv/MBq | Organ equivalent dose HT, Thymus (FACHpig1): 1.03E-02 mSv/MBq | Organ equivalent dose HT, Thyroid (FACHpig1): 8.02E-03 mSv/MBq | Organ equivalent dose HT, Total Body (FACHpig1): 1.15E-02 mSv/MBq | Organ equivalent dose HT, Urinary Bladder Wall (FACHpig1): 6.86E-02 mSv/MBq | Effective dose (FACHpig2): 1.19E-02 mSv/MBq | Effective dose contribution HT wT, Adrenals (FACHpig2): 1.33E-04 mSv/MBq | Effective dose contribution HT wT, Brain (FACHpig2): 4.35E-05 mSv/MBq | Effective dose contribution HT wT, Esophagus (FACHpig2): 3.43E-04 mSv/MBq | Effective dose contribution HT wT, Eyes (FACHpig2): 0.00E+00 mSv/MBq | Effective dose contribution HT wT, Gallbladder Wall (FACHpig2): 4.78E-04 mSv/MBq | Effective dose contribution HT wT, Heart Wall (FACHpig2): 8.50E-05 mSv/MBq | Effective dose contribution HT wT, Kidneys (FACHpig2): 2.20E-04 mSv/MBq | Effective dose contribution HT wT, Left colon (FACHpig2): 7.07E-04 mSv/MBq | Effective dose contribution HT wT, Liver (FACHpig2): 1.11E-03 mSv/MBq | Effective dose contribution HT wT, Lungs (FACHpig2): 9.55E-04 mSv/MBq | Effective dose contribution HT wT, Osteogenic Cells (FACHpig2): 2.34E-04 mSv/MBq | Effective dose contribution HT wT, Pancreas (FACHpig2): 2.11E-04 mSv/MBq | Effective dose contribution HT wT, Prostate (FACHpig2): 4.73E-05 mSv/MBq | Effective dose contribution HT wT, Rectum (FACHpig2): 3.17E-04 mSv/MBq | Effective dose contribution HT wT, Red Marrow (FACHpig2): 1.97E-03 mSv/MBq | Effective dose contribution HT wT, Right colon (FACHpig2): 1.58E-03 mSv/MBq | Effective dose contribution HT wT, Salivary Glands (FACHpig2): 7.07E-05 mSv/MBq | Effective dose contribution HT wT, Small Intestine (FACHpig2): 2.47E-04 mSv/MBq | Effective dose contribution HT wT, Spleen (FACHpig2): 8.20E-05 mSv/MBq | Effective dose contribution HT wT, Stomach Wall (FACHpig2): 1.22E-03 mSv/MBq | Effective dose contribution HT wT, Testes (FACHpig2): 2.83E-04 mSv/MBq | Effective dose contribution HT wT, Thymus (FACHpig2): 7.07E-05 mSv/MBq | Effective dose contribution HT wT, Thyroid (FACHpig2): 2.52E-04 mSv/MBq | Effective dose contribution HT wT, Total Body (FACHpig2): 0.00E+00 mSv/MBq | Effective dose contribution HT wT, Urinary Bladder Wall (FACHpig2): 1.25E-03 mSv/MBq | Organ equivalent dose HT, Adrenals (FACHpig2): 1.44E-02 mSv/MBq | Organ equivalent dose HT, Brain (FACHpig2): 4.35E-03 mSv/MBq | Organ equivalent dose HT, Esophagus (FACHpig2): 8.58E-03 mSv/MBq | Organ equivalent dose HT, Eyes (FACHpig2): 6.29E-03 mSv/MBq | Organ equivalent dose HT, Gallbladder Wall (FACHpig2): 5.18E-02 mSv/MBq | Organ equivalent dose HT, Heart Wall (FACHpig2): 9.21E-03 mSv/MBq | Organ equivalent dose HT, Kidneys (FACHpig2): 2.38E-02 mSv/MBq | Organ equivalent dose HT, Left colon (FACHpig2): 1.46E-02 mSv/MBq | Organ equivalent dose HT, Liver (FACHpig2): 2.77E-02 mSv/MBq | Organ equivalent dose HT, Lungs (FACHpig2): 7.96E-03 mSv/MBq | Organ equivalent dose HT, Osteogenic Cells (FACHpig2): 2.34E-02 mSv/MBq | Organ equivalent dose HT, Pancreas (FACHpig2): 2.28E-02 mSv/MBq | Organ equivalent dose HT, Prostate (FACHpig2): 1.02E-02 mSv/MBq | Organ equivalent dose HT, Rectum (FACHpig2): 1.38E-02 mSv/MBq | Organ equivalent dose HT, Red Marrow (FACHpig2): 1.64E-02 mSv/MBq | Organ equivalent dose HT, Right colon (FACHpig2): 3.25E-02 mSv/MBq | Organ equivalent dose HT, Salivary Glands (FACHpig2): 7.07E-03 mSv/MBq | Organ equivalent dose HT, Small Intestine (FACHpig2): 2.67E-02 mSv/MBq | Organ equivalent dose HT, Spleen (FACHpig2): 8.88E-03 mSv/MBq | Organ equivalent dose HT, Stomach Wall (FACHpig2): 1.01E-02 mSv/MBq | Organ equivalent dose HT, Testes (FACHpig2): 7.08E-03 mSv/MBq | Organ equivalent dose HT, Thymus (FACHpig2): 7.66E-03 mSv/MBq | Organ equivalent dose HT, Thyroid (FACHpig2): 6.30E-03 mSv/MBq | Organ equivalent dose HT, Total Body (FACHpig2): 9.14E-03 mSv/MBq | Organ equivalent dose HT, Urinary Bladder Wall (FACHpig2): 3.12E-02 mSv/MBq | Effective dose (FACHpig3): 1.29E-02 mSv/MBq | Effective dose contribution HT wT, Adrenals (FACHpig3): 1.35E-04 mSv/MBq | Effective dose contribution HT wT, Brain (FACHpig3): 4.10E-05 mSv/MBq | Effective dose contribution HT wT, Esophagus (FACHpig3): 3.24E-04 mSv/MBq | Effective dose contribution HT wT, Eyes (FACHpig3): 0.00E+00 mSv/MBq | Effective dose contribution HT wT, Gallbladder Wall (FACHpig3): 8.05E-04 mSv/MBq
